Measured values as given in article PMC11509018, “Evaluation of the Role of Tanshinone I in an In Vitro System of Charcot-Marie-Tooth Disease Type 2N” (International Journal of Molecular Sciences, 2024).
Residue numbers refer to the chain shown, from its start.

Tests used:
AlaRS^R326W = target: T1, AlaRS^R326W (Homo sapiens, UniProt P49588, R326W); assay: Biolayer interferometry (BLI); type: binding; conditions: immobilized AlaRS^R326W, mean ± SD, triplicate
T1 construct: made in house; host or cells: E. coli BL21 (DE3), pET-21a
T1 sequence (P49588 1-968 R326W): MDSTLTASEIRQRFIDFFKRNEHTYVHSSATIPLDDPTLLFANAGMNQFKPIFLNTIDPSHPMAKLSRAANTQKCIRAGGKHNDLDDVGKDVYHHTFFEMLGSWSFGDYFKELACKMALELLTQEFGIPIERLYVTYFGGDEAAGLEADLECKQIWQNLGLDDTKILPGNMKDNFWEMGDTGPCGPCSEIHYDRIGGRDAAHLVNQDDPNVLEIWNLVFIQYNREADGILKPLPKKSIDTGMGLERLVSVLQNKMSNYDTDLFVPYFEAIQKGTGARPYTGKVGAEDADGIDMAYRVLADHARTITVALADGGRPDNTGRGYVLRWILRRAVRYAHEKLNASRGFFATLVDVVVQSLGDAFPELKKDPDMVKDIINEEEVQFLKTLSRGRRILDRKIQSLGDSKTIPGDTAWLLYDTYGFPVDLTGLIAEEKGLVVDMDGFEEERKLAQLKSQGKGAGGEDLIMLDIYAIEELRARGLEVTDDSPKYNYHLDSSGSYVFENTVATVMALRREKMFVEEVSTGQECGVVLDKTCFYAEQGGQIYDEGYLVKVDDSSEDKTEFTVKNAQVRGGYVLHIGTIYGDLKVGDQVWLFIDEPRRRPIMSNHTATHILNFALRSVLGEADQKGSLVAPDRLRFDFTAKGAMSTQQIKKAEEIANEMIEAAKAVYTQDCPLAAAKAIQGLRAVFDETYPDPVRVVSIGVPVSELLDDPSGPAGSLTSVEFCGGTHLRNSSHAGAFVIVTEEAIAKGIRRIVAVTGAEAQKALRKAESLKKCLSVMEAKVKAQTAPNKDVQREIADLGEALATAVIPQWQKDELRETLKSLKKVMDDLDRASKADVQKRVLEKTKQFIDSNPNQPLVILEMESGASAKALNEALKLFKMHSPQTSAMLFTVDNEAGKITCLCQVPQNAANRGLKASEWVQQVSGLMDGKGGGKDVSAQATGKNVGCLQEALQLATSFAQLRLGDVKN
Method: (§1) Furthermore, we examined the interaction of Tanshinone I with additional AlaRS CMT mutants capable of binding to Nrp1 and causing conformational changes by BLI and proteolysis assays on additional related mutants. […] To further quantify the binding of small molecules to mutant proteins, binding experiments with AlaRS^R329H proteins and small molecules were conducted using an Octet R8 system (ForteBio, Fremont, CA, USA). Purified His-tagged AlaRS^R329H proteins (500 μg/mL) were captured on Ni-NTA biosensors (ForteBio, Fremont, CA, USA), achieving a saturation response of 4–5 nm after 300 s. The biosensors were then transferred to Octet buffer (PBS with 0.01% Tween 20) for 180 s to remove loosely bound, nonspecific proteins and to establish a stable baseline. Following this, the sensors were immersed in diluted Tanshinone I (2.5–100 μM in assay buffer) for 120 s to record the association signal, and then transferred back into Octet buffer to monitor the dissociation signal for 120 s. Reference wells containing buffer instead of Tanshinone I were included to correct for baseline shifts. Additionally, a parallel set of Ni-NTA sensors in buffer served as negative reference controls to account for nonspecific binding of the compounds to the biosensor surface. The data were processed using a double reference subtraction protocol to eliminate nonspecific signals, background noise, and signal drifts caused by biosensor variability. All assays were performed in 96-well black plates with a total volume of 200 μL per well at 30 °C. Data analysis, including correction and curve fitting, was carried out using Octet® Analysis Studio 12.2.2.26. The experiment was repeated three times.

AlaRS^G102R = target: T2, AlaRS^G102R (Homo sapiens, UniProt P49588, G102R); assay: Biolayer interferometry (BLI); type: binding; conditions: immobilized AlaRS^G102R, mean ± SD, triplicate
T2 construct: made in house; host or cells: E. coli BL21 (DE3), pET-21a
T2 sequence (P49588 1-968 G102R): T1 sequence (P49588 1-968 R326W) with G102R, W326R
Method: as §1

Kd (AlaRS^R326W): 39.6 ± 6.4 µM
Kd (AlaRS^G102R): 31.2 ± 11.9 µM
SMILES: Cc1coc2c1C(=O)C(=O)c1c-2ccc2c(C)cccc12 [Tanshinone I]
